Experimental data taken from paper PMC10447463, “Data-mining unveils structure–property–activity correlation of viral infectivity enhancing self-assembling peptides” (Nature Communications, 2023).
Read-outs that look alike come from different tables or passages of the source.

Experiments:
[1] = tested on: HIV-1 infection of TZM-bl cells; test: HIV-1 infectivity enhancement assay, β-galactosidase luminescence; assay type: cell-based
[2] = Turbidity, derived count rate of scattered light; assay type: physicochemical; conditions: for Count Rate / kcps: derived count rate of scattered light at 633 nm, 173°, from zeta-potential measurement, 0.1 mg/mL in 1 mM KCl after 1 d at 1 mg/mL in PBS, turbidity / microscopic aggregation, mean of triplicate
Procedure, shortened: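 Samples: 1 mg/mL in PBS pH 7.4 (from DMSO), 1 d at RT, then diluted in 1 mM KCl immediately before measurement. Triplicates, two independent runs averaged.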

[3] = Zeta-potential measurement; assay type: physicochemical; conditions: for Zeta-pot. / mV: zeta potential of peptide, Fig S15 source data; for Zeta pot. / mV: 1 mg/mL in PBS pH 7.4 from 10 mg/mL DMSO stock, 1 d RT, 60 µL diluted in 600 µL 1 mM KCl, Zetasizer Nano ZS, Smoluchowski, mean of triplicate
Procedure, shortened: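 Peptides diluted from DMSO stock into PBS pH 7.4 to 1 mg/mL and aged 1 d at RT, then diluted into 1 mM aqueous KCl. Zeta potential derived from electrophoretic mobility via Smoluchowski; triplicates, averaged over two independent experiments.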

[4] = assay type: physicochemical; parameters: key to Fibril / Fibril Formation / TEM 2cat / Fibril: 1 = fibrils present; 0 non-fibrillar structures; conditions: for Fibril / Fibril Formation: TEM, 1 mg/mL, uranyl acetate stain, qualitative
[5] = log10 of infection relative to EF-C, Figure 6C
[6] = n-fold infection vs virus only, relative to that of EF-C, 1.3 µM peptide
[7] = log10 of derived count rate of scattered light, Figure 6C
[8] = logarithm of count rate in kcps
[9] = Feb2021; figures match the 1.3 µM column
[10] = Feb2021; infectivity relative to virus only
[11] = Feb2021; log10 of infectivity relative to EF-C
[12] = Feb2021; n-fold infectivity relative to EF-C
[13] = infectivity class (low / medium / high) of each library peptide; main list in c1-c6, same classes repeated in sub-lists of sequences containing the hydrophobicity/charge patterns P+,H0,P+,H0,P0,H0,P0; P+,H0,P0,H0,P0,H0,P0; P+,H0,P0,H0
[14] = infectivity class (low / medium / high) of the peptide in the sequence-pattern analysis, Fig. S22-A4; class limits not given
[15] = log10 of HIV-1 infection of TZM-bl cells relative to EF-C; Fig S15 source data; asymmetric std dev errors
[16] = derived count rate of scattered light
[17] = log10 of infection relative to EF-C, Figure 7B
[18] = infectivity enhancement relative to EF-C (=1); Feb2021 run
[19] = infectivity n-fold relative to virus only; Feb2021 run
[20] = log10 of infectivity relative to EF-C; Feb2021 run
[21] = derived count rate from zeta measurement, mean

Substance | Inf. rel. EF-C [1, 6] | Count Rate / kcps [2] [kcps] | Fibril / Fibril Formation [4] | Absolute Infectivity / RLU /s (Feb2021) [1, 9] [RLU /s] | n-fold to virus (Feb2021) [1, 10] | Log10 of Rel to EFC (Feb2021) [1, 11] | Rel-to EFC (Feb-2021) [1, 12] | infectivity [1, 13] | Log10 Inf. rel. to EF-C [1, 15] | Zeta Count Rate Category ([2]; category 1 / 0, no key given) | Zeta Count Rate / kcps [2, 16] [kcps] | Zeta Pot. / mV [3] [mV] | Zeta category ( +1 = if > 4 mV;-1 = if < -4 mV; 0 = -4mV to 4 mV) [3] | Zeta-pot. / mV [3] [mV] | TEM: 1= fibrils, 0= aggregates (micelle), 0.5 = aggregates and fibrils, -1 = nothing obersved, STD prep [4] | Zeta pot. / mV [3] [mV] | Log10 Infection Rel EF-C [1, 17] | Zeta-Potential / mV ([3]; mean, Figure 7B) [mV] | other results
KIWIWIW | 0.53 | 6186.6 | 1 | – | – | – | – | – | – | – | – | – | – | – | – | – | – | – | Log10 Infection Rel EF-C [1, 5]: -0.2793; Log10 Count Rate [2, 7]: 3.791; Log10 Count Rate [2, 8]: 3.791; Zeta-Potential / mV ([3]; mean, Figure 6C): 11.33 mV
KLKLKLQL [TG16] | – | – | – | 2097 | 4.111 | -1.009 | 0.09784 | low | -1.009 | 0 | 42.87 | 8.39 | 1 (+1 = if > 4 mV) | 8.39 | 1 | – | – | – | infectivity [1, 14]: low
KLKLTLT | 0.04 | 198.5 | 1 | – | – | – | – | – | – | – | – | – | – | – | – | 1.713 | – | – | Inf. rel. EF-C ([1]; HIV-1 infection relative to EF-C; Fig 23 plot, panels A and B; mean of 3 values): 0.03847; Inf. rel. EF-C ([1]; HIV-1 infection relative to EF-C; Fig 23 plot, single data point, replicate 1): 0.0783; Inf. rel. EF-C ([1]; HIV-1 infection relative to EF-C; Fig 23 plot, single data point, replicate 2): 0.01816; Inf. rel. EF-C ([1]; HIV-1 infection relative to EF-C; Fig 23 plot, single data point, replicate 3): 0.01895; Log10 Infection Rel EF-C [1, 5]: -1.415; Log10 Count Rate [2, 7]: 2.298; Log10 Count Rate [2, 8]: 2.298; Zeta-Potential / mV ([3]; mean, Figure 6C): 1.713 mV
KLVFFAK [reference compound] | 0.07 | 14 | 1 | – | – | – | – | – | – | – | – | – | – | – | – | 3.2 | -1.15 | 3.23 | –
KVKVKVQV [JG14 / TG14] | – | – | – | 466.7 | 0.7254 | -1.763 | 0.01726 | low | -1.763 | 0 | 94.37 | -3.41 | 0 (0 = -4mV to 4 mV) | -3.41 | 0.5 | – | – | – | –
KVKVQVV [TG2] | – | – | – | 213.3 | 0.3832 | -2.04 | 0.009121 | low | -2.04 | 0 | 27.73 | -7.92 | -1 (-1 = if < -4 mV) | -7.92 | 0.5 | – | – | – | infectivity [1, 14]: low; Rel-to EFC (Feb-2021) [1, 18]: 0.009121; n-fold to virus (Feb2021) [1, 19]: 0.3832; Log10 of Rel to EFC (Feb2021) [1, 20]: -2.04; Zeta Count Rate / kcps [2, 21]: 27.73 kcps; Zeta Count Rate Category ([2]; key not given): 0; Zeta Pot. / mV ([3]; mean, Std in separate column): -7.92 mV
KVKVQVVV [TG8] | – | – | – | 820 | 1.473 | -1.455 | 0.03506 | low | -1.455 | 1 | 163.1 | 0.147 | 0 (0 = -4mV to 4 mV) | 0.147 | 1 | – | – | – | infectivity [1, 14]: low; Rel-to EFC (Feb-2021) [1, 18]: 0.03506; n-fold to virus (Feb2021) [1, 19]: 1.473; Log10 of Rel to EFC (Feb2021) [1, 20]: -1.455; Zeta Count Rate / kcps [2, 21]: 163.1 kcps; Zeta Count Rate Category ([2]; key not given): 1; Zeta Pot. / mV ([3]; mean, Std in separate column): 0.147 mV
KYFIL [reference compound] | 0.07 | 18903 | 0 | – | – | – | – | – | – | – | – | – | – | – | – | -7.2 | -1.14 | -7.18 | –
KYKYQY [KB1] | – | – | – | 230 | 0.4313 | -1.989 | 0.01026 | low | -1.9887 | 0 | 31.53 | -4.2 | -1 (-1 = if < -4 mV) | -4.2 | 0 | – | – | – | –
LASLIYR [reference compound] | 0.06 | 105 | 0 | – | – | – | – | – | – | – | – | – | – | – | – | -5.0 | -1.2 | -5.01 | –
MKVIFLKDVKG [reference compound] | 0.12 | 137 | 1 | – | – | – | – | – | – | – | – | – | – | – | – | 9.6 | -0.93 | 9.62 | infectivity enhancement, in words ([1]; fibril-forming peptides with positive zeta-potential, low count rate): do not enhance infectivity
NKGAII [reference compound] | 0.06 | 68 | 0 | – | – | – | – | – | – | – | – | – | – | – | – | -9.5 | -1.2 | -9.46 | –
RATVYV [reference compound] | 0.04 | 42 | 1 | – | – | – | – | – | – | – | – | – | – | – | – | -5.2 | -1.38 | -5.17 | –
RFWFWFW | 0.32 | 30037.33333 | 0 | – | – | – | – | – | – | – | – | – | – | – | – | – | – | – | Log10 Infection Rel EF-C [1, 5]: -0.495; Log10 Count Rate [2, 7]: 4.478; Log10 Count Rate [2, 8]: 4.478; Zeta-Potential / mV ([3]; mean, Figure 6C): 13.63 mV
RGDKIKIQINM [MG8a / CN17] | – | – | – | 9554 | 17.36 | -0.3838 | 0.4132 | medium | -0.3838 | 0 | 57.2 | 16.43 | 1 (+1 = if > 4 mV) | 16.43 | 1 | – | – | – | n-fold to virus (Feb2021) ([1]; Feb2021 run; infectivity n-fold relative to virus alone): 17.36; Log10 of Rel to EFC (Feb2021) ([1]; Feb2021 run; log10 of infectivity relative to EF-C): -0.3838; Rel-to EFC (Feb-2021) ([1]; Feb2021 run; n-fold infectivity relative to EF-C): 0.4132; Rel-to EFC (Feb-2021) [1, 18]: 0.4132; n-fold to virus (Feb2021) [1, 19]: 17.36; Log10 of Rel to EFC (Feb2021) [1, 20]: -0.3838; Zeta Count Rate / kcps [2, 21]: 57.2 kcps; Zeta Count Rate / kcps ([2]; derived count rate of scattered light, mean, std deviation in separate column): 57.2 kcps; Zeta Count Rate Category ([2]; key not given): 0; Zeta Pot. / mV ([3]; mean, Std in separate column): 16.43 mV
